Drawing on patent US20240383898A1, “PYRIDO RING COMPOUND, PREPARATION METHOD THEREFOR, INTERMEDIATE, COMPOSITION, AND APPLICATION” (YIYOU BIOTECH (SHANGHAI) CO., LTD, priority 2021, published 2024), this text covers IC50 for 25 compounds.

One assay concerns the target T1, JAK2 (Homo sapiens, UniProt O60674).
T1 construct: purchased Carna 08-045
Description: In vitro activity test of JAK2 kinase (Caliper EZ Reader conversion assay). The format is biochemical. The settings on record: enzyme activity, 10 concentrations from 1000 nM, 3-fold dilution. How it is done: (§1) In Vitro Activity Test of JAK1 and JAK2 Kinases
(§2) • Centrifuge (manufacturer: Eppendorf, model: 5430) • ELISA Instrument (Manufacturer: Perkin Elmer, Model: Caliper EZ Reader 1I) • Echo 550 (Manufacturer: Labcyte, Model: Echo 550)
(§3) (1) Prepare 1 Kinase buffer.
(§4) (2) Compound concentration gradient preparation: The test compound was tested at 1000 nM, 3-fold dilution, 10 concentrations, two-well assay, and configured to a 100-fold final concentration in a 384-well plate. 250 nl of the test compound was then transferred to the 384 reaction plate using Echo550. 250 nl of 100% DMSO was added to each of the negative and positive control wells.
(§5) (3) Prepare 2.5 times the final concentration of kinase solution with 1×Kinase buffer.
(§6) (4) Add 10 μL of 2.5 times the final concentration of kinase solution to the compound wells and 10 μL of 1×Kinase buffer to the negative control wells.
(§7) (5) Centrifuge at 1000 rpm for 30 seconds, mix well with shaking, and incubate at room temperature for 10 minutes.
(§8) (6) Prepare a 25/15-fold final concentration of mixture of ATP and Kinase substrate with 1×Kinase buffer.
(§9) (7) Add 15 μL of a mixture of 25/15 times the final concentration of ATP and substrate to start the reaction.
(§10) (8) Centrifuge the 384-well plate at 1000 rpm for 30 seconds, mix well with shaking, and incubate at room temperature for an appropriate amount of time.
(§11) (9) Stop the kinase reaction by adding 30 μL of termination solution, centrifuge at 1000 rpm for 30 seconds, and mix well with shaking.
(§12) (10) Read the conversion rate with Caliper EZ Reader.
(§13) where: Conversion %_sample is the conversion rate reading of the sample-, Conversion %_min: the average value of the negative control wells, representing the conversion reading of the wells without enzyme activity: Conversion %-max: the average value of the positive control wells, representing the conversion reading of the wells without compound inhibition.
(§14) The log value of concentration was used as the X-axis and the percentage inhibition as the Y-axis, and the function of the analytical software GraphPad Prism 5; log(inhibitor) vs. response -Variable slope, was used to lit dose-effect curves to obtain the IC50) values of each compound on enzyme activity.
(§15) The formula is Y=Bottom+(Top-Bottom)/(1+10^((LogIC50-X)*HillSlope))
(§16) The 1C50 data are specified in Table 1.

The next assay addresses T2, JAK1 (Homo sapiens, UniProt P23458).
T2 construct: purchased Carna 08-114
The assay is described as follows: In vitro activity test of JAK1 kinase (Caliper EZ Reader conversion assay). The format is biochemical. Conditions: enzyme activity, 10 concentrations from 1000 nM, 3-fold dilution. How it is done:
as §1, §2, §3, §4, §5, §6, §7, §8, §9, §10, §11, §12, §13, §14, §15, §16

Where only a bound is given, the exact number is not on record here.

As usually defined, the IC50 is the midpoint of a concentration-inhibition curve. A higher IC50 goes with lower potency.

T2 sequence (P23458 whole entry, species assumed): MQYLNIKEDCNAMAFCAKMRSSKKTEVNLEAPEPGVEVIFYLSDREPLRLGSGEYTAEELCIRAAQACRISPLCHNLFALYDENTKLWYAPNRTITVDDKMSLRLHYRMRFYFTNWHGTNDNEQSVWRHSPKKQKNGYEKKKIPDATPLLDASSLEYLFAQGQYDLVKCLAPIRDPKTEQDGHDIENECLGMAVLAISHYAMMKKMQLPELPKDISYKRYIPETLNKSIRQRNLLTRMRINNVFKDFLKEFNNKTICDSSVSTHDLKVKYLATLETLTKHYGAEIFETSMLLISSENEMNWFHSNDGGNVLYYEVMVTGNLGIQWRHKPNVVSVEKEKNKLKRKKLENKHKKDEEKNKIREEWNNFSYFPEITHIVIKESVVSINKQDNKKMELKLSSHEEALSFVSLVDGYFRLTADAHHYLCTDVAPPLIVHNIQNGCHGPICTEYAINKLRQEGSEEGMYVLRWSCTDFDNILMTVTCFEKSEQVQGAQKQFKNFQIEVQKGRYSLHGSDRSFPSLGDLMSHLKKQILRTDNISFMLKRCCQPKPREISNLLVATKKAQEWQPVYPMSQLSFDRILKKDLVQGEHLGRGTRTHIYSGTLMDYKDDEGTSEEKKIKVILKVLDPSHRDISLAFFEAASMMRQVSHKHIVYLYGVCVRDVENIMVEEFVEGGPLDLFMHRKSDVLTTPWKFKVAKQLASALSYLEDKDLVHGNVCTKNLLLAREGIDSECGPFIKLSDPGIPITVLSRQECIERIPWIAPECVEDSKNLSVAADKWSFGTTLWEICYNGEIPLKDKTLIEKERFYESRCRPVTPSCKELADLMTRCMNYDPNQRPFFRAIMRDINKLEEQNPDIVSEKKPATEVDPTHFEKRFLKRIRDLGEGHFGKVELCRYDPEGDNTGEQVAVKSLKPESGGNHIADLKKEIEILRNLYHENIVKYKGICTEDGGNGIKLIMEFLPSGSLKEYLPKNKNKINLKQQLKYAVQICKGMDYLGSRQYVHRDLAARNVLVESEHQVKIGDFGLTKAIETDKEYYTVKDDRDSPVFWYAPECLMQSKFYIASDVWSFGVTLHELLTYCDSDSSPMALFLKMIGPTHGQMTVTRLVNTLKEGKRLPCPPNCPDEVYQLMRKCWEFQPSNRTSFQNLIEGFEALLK
T1 sequence (O60674 whole entry, species assumed): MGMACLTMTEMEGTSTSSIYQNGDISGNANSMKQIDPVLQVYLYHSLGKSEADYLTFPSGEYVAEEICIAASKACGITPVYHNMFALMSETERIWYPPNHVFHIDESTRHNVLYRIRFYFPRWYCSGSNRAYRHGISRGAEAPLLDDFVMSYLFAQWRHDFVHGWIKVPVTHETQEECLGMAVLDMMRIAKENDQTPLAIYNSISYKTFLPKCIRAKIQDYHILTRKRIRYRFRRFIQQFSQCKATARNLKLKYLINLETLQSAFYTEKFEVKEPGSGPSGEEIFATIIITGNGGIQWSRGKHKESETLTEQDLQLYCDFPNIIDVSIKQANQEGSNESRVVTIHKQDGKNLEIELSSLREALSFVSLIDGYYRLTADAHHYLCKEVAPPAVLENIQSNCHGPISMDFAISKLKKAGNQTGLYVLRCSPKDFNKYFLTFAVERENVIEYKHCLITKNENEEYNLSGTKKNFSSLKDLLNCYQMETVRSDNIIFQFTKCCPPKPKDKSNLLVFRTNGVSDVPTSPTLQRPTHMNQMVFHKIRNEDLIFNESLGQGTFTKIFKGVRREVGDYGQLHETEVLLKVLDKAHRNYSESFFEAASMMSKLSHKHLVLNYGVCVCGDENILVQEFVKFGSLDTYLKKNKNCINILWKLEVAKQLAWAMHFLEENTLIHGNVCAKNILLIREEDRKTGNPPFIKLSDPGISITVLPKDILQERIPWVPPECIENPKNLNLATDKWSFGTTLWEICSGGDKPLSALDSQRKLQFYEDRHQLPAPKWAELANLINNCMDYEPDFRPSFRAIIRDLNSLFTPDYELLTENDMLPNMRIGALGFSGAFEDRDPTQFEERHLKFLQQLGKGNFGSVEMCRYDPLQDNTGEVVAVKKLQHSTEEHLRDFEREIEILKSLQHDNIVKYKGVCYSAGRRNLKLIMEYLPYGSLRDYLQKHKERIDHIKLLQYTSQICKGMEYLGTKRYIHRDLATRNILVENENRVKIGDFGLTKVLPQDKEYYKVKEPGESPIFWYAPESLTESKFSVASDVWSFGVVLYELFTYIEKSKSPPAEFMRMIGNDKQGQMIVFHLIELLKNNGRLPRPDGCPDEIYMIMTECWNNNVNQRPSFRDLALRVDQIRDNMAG

`N#C[C@H]1CC[C@H](n2c(-c3ccc(F)cc3)nc3cnc4[nH]ccc4c32)CC1` (stereo in doubt) [LXS43, trans-4-(2-(4-Fluorophenyl)imidazo[4,5-d]pyrrolo[2,3-b]pyridin-1(6H)-yl)cyclohexanecarbonitrile]: the IC50 fell in the range of 100 to 1000 nM against JAK2 and 10 to 100 nM against JAK1.

Turning to `CS(=O)(=O)c1ccc(C2Nc3cnc4[nH]ccc4c3N2C2CCC(C#N)CC2)cc1` (stereo in doubt) [LXS44, trans-4-(2-(4-(Methylsulfonyl)phenyl)-2,3-dihydroimidazo[4,5-d]pyrrolo[2,3-b]pyridin-1(6H)-yl)cyclohexanecarbonitrile], the IC50 against JAK2 and at JAK1 was 10 to 100 nM in each case.

On to `C[C@@H](O)c1nc2cnc3[nH]ccc3c2n1C1CCN(C(=O)OC(C)(C)C)C1` (stereo partly drawn) [LXS01, tert-butyl 3-(2-((R)-1-hydroxyethyl)imidazo[4,5-d]pyrrolo[2,3-b]pyridin-1(6H)-yl)pyrrolidine-1-carboxylate], for which the half-maximal inhibitory concentration (IC50) against JAK2 and at JAK1 was 100 to 1000 nM throughout.

In the case of `C[C@@H](O)c1nc2cnc3[nH]ccc3c2n1C1CCN(C(=O)c2ccc(C#N)cc2)C1` (stereo partly drawn) [LXS02, 4-(3-(2-((R)-1-hydroxyethyl)imidazo[4,5-d]pyrrolo[2,3-b]pyridin-1(6H)-yl)pyrrolidin-1-carbonyl)benzonitrile], the concentration for half-maximal inhibition (IC50) on JAK2 and on JAK1 was 100 to 1000 nM each time.

In the case of `C[C@@H](O)c1nc2cnc3[nH]ccc3c2n1C1CCN(C(=O)c2ccc(F)cc2)C1` (stereo partly drawn) [LXS03, (4-Fluorophenyl)(3-(2-((R)-1-Hydroxyethyl)imidazo[4,5-d]pyrrolo[2,3-b]pyridin-1(6H)-yl)pyrrolidin-1-yl)methanone], the IC50 at JAK2 and against JAK1 was 100 to 1000 nM in each case.

For the compound `CCS(=O)(=O)N1CCC(n2c([C@@H](C)O)nc3cnc4[nH]ccc4c32)C1` (stereo partly drawn) [LXS04, (1R)-1-(1-(1-(ethylsulfonyl)pyrrolidin-3-yl)-1,6-dihydroimidazo[4,5-d]pyrrolo[2,3-b]pyridin-2-yl)ethan-1-ol], the IC50 on JAK2 fell in the range of 100 to 1000 nM; on JAK1, 10 to 100 nM.

Regarding `CCCS(=O)(=O)N1CCC(n2c([C@@H](C)O)nc3cnc4[nH]ccc4c32)C1` (stereo partly drawn) [LXS05, (1R)-1-(1-(1-(propylsulfonyl)pyrrolidin-3-yl)-1,6-dihydroimidazo[4,5-d]pyrrolo[2,3-b]pyridin-2-yl)ethan-1-ol], the IC50 against JAK2 is 100 to 1000 nM; against JAK1, 10 to 100 nM.

For `CCCCS(=O)(=O)N1CCC(n2c([C@@H](C)O)nc3cnc4[nH]ccc4c32)C1` (stereo partly drawn) [LXS06, (1R)-1-(1-(1-(butylsulfonyl)pyrrolidin-3-yl)-1,6-dihydroimidazo[4,5-d]pyrrolo[2,3-b]pyridin-2-yl)ethan-1-ol], the concentration for half-maximal inhibition (IC50) lay within 100 to 1000 nM at JAK2 and 10 to 100 nM against JAK1.

As to `C[C@@H](O)c1nc2cnc3[nH]ccc3c2n1C1CCN(S(=O)(=O)c2ccccc2F)C1` (stereo partly drawn) [LXS07, (1R)-1-(1-(1-((2-fluorophenyl)sulfonyl)pyrrolidin-3-yl)-1,6-dihydroimidazo[4,5-d]pyrrolo[2,3-b]pyridin-2-yl)ethan-1-ol], the concentration for half-maximal inhibition (IC50) against JAK2 and against JAK1 was 100 to 1000 nM throughout.

For `Cc1ccc(S(=O)(=O)N2CCC(n3c([C@@H](C)O)nc4cnc5[nH]ccc5c43)C2)cc1` (stereo partly drawn) [LXS08, (1R)-1-(1-(1-tosylpyrrolidin-3-yl)-1,6-dihydroimidazo[4,5-d]pyrrolo[2,3-b]pyridin-2-yl)ethan-1-ol], the 50% inhibitory concentration (IC50) at JAK2 and against JAK1 was 100 to 1000 nM in each case.

On to `C[C@@H](O)c1nc2cnc3[nH]ccc3c2n1C1CCN(S(=O)(=O)c2ccc(-c3ccccc3)cc2)C1` (stereo partly drawn) [LXS09, (1R)-1-(1-(1-([1,1′-biphenyl]-4-ylsulfonyl)pyrrolidin-3-yl)-1,6-dihydroimidazo[4,5-d]pyrrolo[2,3-b]pyridin-2-yl)ethan-1-ol], for which the figures for the IC50 against JAK2 and on JAK1 were more than 1000 nM and 100 to 1000 nM, respectively.

As for `C[C@@H](O)c1nc2cnc3[nH]ccc3c2n1C1CCN(S(=O)(=O)c2ccc3ccccc3c2)C1` (stereo partly drawn) [LXS10, (1R)-1-(1-(1-(naphthalen-2-ylsulfonyl)pyrrolidin-3-yl)-1,6-dihydroimidazo[4,5-d]pyrrolo[2,3-b]pyridin-2-yl)ethan-1-ol], the half-inhibitory concentration (IC50) against JAK2 was more than 1000 nM; on JAK1 it was 100 to 1000 nM.

For `C[C@@H](O)c1nc2cnc3[nH]ccc3c2n1C1CCN(S(=O)(=O)c2ccc(OC(F)(F)F)cc2)C1` (stereo partly drawn) [LXS11, (1R)-1-(1-(1-((4-(trifluoromethoxy)phenyl)sulfonyl)pyrrolidin-3-yl)-1,6-dihydroimidazo[4,5-d]pyrrolo[2,3-b]pyridin-2-yl)ethan-1-ol], the values for the 50% inhibitory concentration (IC50) against JAK2 and at JAK1 were 100 to 1000 nM and 10 to 100 nM, respectively.

Turning to `C[C@@H](O)c1nc2cnc3[nH]ccc3c2n1C1CCN(S(=O)(=O)c2cccs2)C1` (stereo partly drawn) [LXS12, (1R)-1-(1-(1-(thiophen-2-ylsulfonyl)pyrrolidin-3-yl)-1,6-dihydroimidazo[4,5-d]pyrrolo[2,3-b]pyridin-2-yl)ethan-1-ol], the figures for the concentration for half-maximal inhibition (IC50) against JAK2 and against JAK1 were 100 to 1000 nM and 10 to 100 nM, respectively.

Take `CCS(=O)(=O)N1CC(CC#N)(n2cc(-n3c(-c4ccc(CO)o4)nc4cnc5[nH]ccc5c43)cn2)C1` [LXS13, 2-(1-(ethylsulfonyl)-3-(4-(2-(5-(hydroxymethyl)furan-2-yl)imidazo[4,5-d]pyrrolo[2,3-b]pyridin-1(6H)-yl)-1H-pyrazol-1-yl)azetidin-3-yl)acetonitrile]: the half-inhibitory concentration (IC50) against JAK2 fell in the range of 10 to 100 nM; against JAK1, 100 to 1000 nM.

As to `CCCCS(=O)(=O)N1CC(CC#N)(n2cc(-n3c(-c4ccc(CO)o4)nc4cnc5[nH]ccc5c43)cn2)C1` [LXS15, 2-(1-(butylsulfonyl)-3-(4-(2-(5-(hydroxymethyl)furan-2-yl)imidazo[4,5-d]pyrrolo[2,3-b]pyridin-1(6H)-yl)-1H-pyrazol-1-yl)azetidin-3-yl)acetonitrile], the concentration for half-maximal inhibition (IC50) was in the range of 10 to 100 nM against JAK2 and 100 to 1000 nM against JAK1.

Consider `CCCS(=O)(=O)N1CCC(n2c(-c3ccc(CO)o3)nc3cnc4[nH]ccc4c32)C1` (centres unmarked) [LXS16], for which the IC50 on JAK2 and on JAK1 was 10 to 100 nM each time.

Regarding `O=C(C1CC1)N1CCC(n2c(-c3ccc(CO)o3)nc3cnc4[nH]ccc4c32)C1` (centres unmarked) [LXS17, Cyclopropyl(3-(2-(5-(hydroxymethyl)furan-2-yl)imidazo[4,5-d]pyrrolo[2,3-b]pyridin-1(6H)-yl)pyrrolidin-1-yl) methanone], the IC50 against JAK2 and on JAK1 was 10 to 100 nM each time.

Turning to `CCCS(=O)(=O)N1CCC(n2c(-c3ncc[nH]3)nc3cnc4[nH]ccc4c32)C1` (centres unmarked) [LXS18, 2-(1H-imidazol-2-yl)-1-(1-(propylsulfonyl)pyrrolidin-3-yl)-1,6-dihydroimidazo[4,5-d]pyrrolo[2,3-b]pyridine], the IC50 on JAK2 and at JAK1 was 10 to 100 nM in each case.

As for `O=S(=O)(N1CCC(n2c(-c3ncc[nH]3)nc3cnc4[nH]ccc4c32)C1)C(F)(F)F` (centres unmarked) [LXS19, 2-(1H-imidazol-2-yl)-1-(1-((trifluoromethyl)sulfonyl)pyrrolidin-3-yl)-1,6-dihydroimidazo[4,5-d]pyrrolo[2,3-b]pyridine], the IC50 at JAK2 and against JAK1 was 10 to 100 nM each time.

Take `CCCS(=O)(=O)N1CCC(n2c(-c3ccccc3O)nc3cnc4[nH]ccc4c32)C1` (centres unmarked) [LXS30, 2-(1-(1-(propylsulfonyl)pyrrolidin-3-yl)-1,6-dihydroimidazo[4,5-d]pyrrolo[2,3-b]pyridin-2-yl)phenol]: the IC50 against JAK2 and against JAK1 was 100 to 1000 nM each time.

As for `CCCS(=O)(=O)N1CCC(n2c(-c3ccc(O)cc3O)nc3cnc4[nH]ccc4c32)C1` (centres unmarked) [LXS31, 4-(1-(1-(Propylsulfonyl)pyrrolidin-3-yl)-1,6-dihydroimidazo[4,5-d]pyrrolo[2,3-b]pyridin-2-yl)benzene-1,3-diol], the IC50 on JAK2 and at JAK1 was 100 to 1000 nM in each case.

On to `CCCS(=O)(=O)N1CCC(n2c(-c3cccc(O)c3)nc3cnc4[nH]ccc4c32)C1` (centres unmarked) [LXS32, 3-(1-(1-(propylsulfonyl)pyrrolidin-3-yl)-1,6-dihydroimidazo[4,5-d]pyrrolo[2,3-b]pyridin-2-yl)phenol], for which the IC50 is less than 10 nM on JAK2 and 10 to 100 nM against JAK1.

Turning to `C=CC(=O)N1CCC(n2c(-c3ccc(O)cc3O)nc3cnc4[nH]ccc4c32)C1` (centres unmarked) [LXS33, 1-(3-(2-(2,4-Dihydroxyphenyl)imidazo[4,5-d]pyrrolo[2,3-b]pyridin-1(6H)-yl)pyrrolidin-1-yl)prop-2-en-1-one], the IC50 on JAK2 and against JAK1 was 10 to 100 nM throughout.

For `O=C(NCC(F)(F)F)N1CCC(n2c(-c3cccc(O)c3)nc3cnc4[nH]ccc4c32)C1` (centres unmarked) [LXS34, 3-(2-(3-Hydroxyphenyl)imidazo[4,5-d]pyrrolo[2,3-b]pyridin-1(6H)-yl)-N-(2,2,2-trifluoroethyl)pyrrolidine-1-carboxamide], the IC50 against JAK2 and at JAK1 was 100 to 1000 nM throughout.
